In ChEMBL document CHEMBL2385034, “Discovery, synthesis and in combo studies of a tetrazole analogue of clofibric acid as a potent hypoglycemic agent” (2013) one finds inhibition, Activity and fold change (FC) data, which are given here for 5 compounds.

Molecules are shown by their SMILES. Activity calls are given as the source filed them. The calls are words filed in the database; no cut-off is given here.

In test [1] the target is 11-beta-hydroxysteroid dehydrogenase 1 (Homo sapiens) (UniProt P28845). As to the kind of experiment: Inhibition of full-length human 11beta-HSD1 expressed in HEK293 cells at 10 uM after 2 hrs by scintillation proximity assay relative to control. The class given is cell-based. In general terms: Scintillation proximity formats need no separation of bound from free tracer.

The species named for test [2] is Rattus norvegicus. As to the kind of experiment: Hypoglycemic activity in STZ-nicotinamide-induced Wistar rat diabetic model after 1 to 7 hrs. The class given is functional, organism-based.
Test [3] deals with Rattus norvegicus. As to the kind of experiment: Hypoglycemic activity in STZ-nicotinamide-induced Wistar rat diabetic model at 5 mg/kg, po after 1 to 7 hrs. Also on record: dose 5 mg/kg. The class given is functional, organism-based.
Test [4] deals with 11-beta-hydroxysteroid dehydrogenase 1 (Homo sapiens) (UniProt P28845). Put plainly: Inhibition of full-length human 11beta-HSD1 expressed in HEK293 cells at 10 uM after 2 hrs by scintillation proximity assay relative to clofibrate. The class given is cell-based.
Test [5] shares this target. As to the kind of experiment: Inhibition of full-length human 11beta-HSD1 expressed in HEK293 cells at 10 uM after 2 hrs by scintillation proximity assay relative to clofibric acid. The format is cell-based.
The test system of test [6] is Rattus norvegicus. As to the kind of experiment: Hypoglycemic activity in STZ-nicotinamide-induced Wistar rat diabetic model at 50 mg/kg, ig after 1 to 7 hrs relative to control. The format is functional. The conditions noted are these: route intragastric.

11-beta-hydroxysteroid dehydrogenase 1 (Homo sapiens), sequence (P28845 whole entry, looked up): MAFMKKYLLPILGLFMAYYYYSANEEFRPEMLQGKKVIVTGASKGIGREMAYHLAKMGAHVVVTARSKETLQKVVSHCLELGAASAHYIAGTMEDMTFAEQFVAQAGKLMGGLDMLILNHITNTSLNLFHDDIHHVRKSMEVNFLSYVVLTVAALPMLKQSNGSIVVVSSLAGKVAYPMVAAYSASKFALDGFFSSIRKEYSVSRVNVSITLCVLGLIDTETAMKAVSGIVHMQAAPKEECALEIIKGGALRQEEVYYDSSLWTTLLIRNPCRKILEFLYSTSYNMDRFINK

The inhibition is the relative decrease from the control value, in per cent. Read a low inhibition as little suppression. In test [1], `CC(C)(Oc1ccc(Cl)cc1)C(=O)O` gave an inhibition of 19.1%. Besides, the outcome in test [2] was inactive.

In test [1], `CC1(C)[C@@H](OC(=O)CCC(=O)O)CC[C@]2(C)[C@H]3C(=O)C=C4[C@@H]5C[C@@](C)(C(=O)O)CC[C@]5(C)CC[C@@]4(C)[C@]3(C)CC[C@@H]12` yielded an inhibition of 78.3%. With `COc1ccc(Cl)cc1C(=O)NCCc1ccc(S(=O)(=O)NC(=O)NC2CCCCC2)cc1`, the outcome in test [3] was Active. Compound `CCOC(=O)C(C)(C)Oc1ccc(Cl)cc1` returned an inhibition in test [1] of 18.1%. On to `CC(C)(Oc1ccc(Cl)cc1)C(=O)Nc1nnn[nH]1`, for which the fold change (FC) in test [4] and in test [5] was 2.5 in each case. This compound also showed an inhibition in test [1] of 51.2%. This compound gave an Activity in test [6] of 16%.
